Assay results: patent US12012383B2, “Compositions and methods for inhibiting dihydroorotate dehydrogenase” (Clear Creek Bio, Inc., priority 2018, dated 2024)
Like-named read-outs stand apart in the source and are kept apart here.

Assays:
[1] = tested on: solid malignancies; conditions: 43 patients; patient with papillary carcinoma of the thyroid (Schwartsmann); cited from earlier work
[2] = Adverse events in subjects receiving brequinar intravenously once a week (Example 2); type: in vivo, human; conditions: 209 subjects, i.v. once a week, median dose 1200 mg/m^2
[3] = tested on: mouse model of AML; conditions: daily administration of high doses; cited from earlier work
[4] = target: DHODH (Homo sapiens, UniProt Q02127); conditions: for DHO plasma level threshold achieved: after a dose
[5] = target: DHODH (Mus musculus, UniProt O35435); experiment: Plasma DHO in mice after brequinar 50 mg/kg (FIG. 6); conditions: at about 84 hours, FIG. 6 dashed line
[6] = tested on: acute myeloid leukemia (AML); experiment: Clinical response of patients with AML to brequinar-containing composition (Examples 9-11); type: in vivo, human
[7] = tested on: advanced malignancies; conditions: cited from earlier work
[8] = Example 9, first patient with AML, threshold 1,600 ng/mL
[9] = Example 10, second patient with AML, threshold 2,900 ng/mL
[10] = Example 11, patient with AML, threshold 133 ng/mL

Sequence of DHODH (Homo sapiens, UniProt Q02127) (Q02127 whole entry): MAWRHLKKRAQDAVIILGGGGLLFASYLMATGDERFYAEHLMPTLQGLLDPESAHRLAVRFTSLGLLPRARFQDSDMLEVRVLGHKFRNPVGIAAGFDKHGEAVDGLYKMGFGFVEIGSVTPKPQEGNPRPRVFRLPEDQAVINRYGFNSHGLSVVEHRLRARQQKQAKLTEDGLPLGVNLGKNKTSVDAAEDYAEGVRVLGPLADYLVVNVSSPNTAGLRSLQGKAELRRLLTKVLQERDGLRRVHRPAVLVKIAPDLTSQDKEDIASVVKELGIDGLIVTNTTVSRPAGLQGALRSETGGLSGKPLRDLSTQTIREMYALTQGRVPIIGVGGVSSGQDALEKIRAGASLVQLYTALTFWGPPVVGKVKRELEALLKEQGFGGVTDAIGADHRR
Sequence of DHODH (Mus musculus, UniProt O35435) (O35435 whole entry): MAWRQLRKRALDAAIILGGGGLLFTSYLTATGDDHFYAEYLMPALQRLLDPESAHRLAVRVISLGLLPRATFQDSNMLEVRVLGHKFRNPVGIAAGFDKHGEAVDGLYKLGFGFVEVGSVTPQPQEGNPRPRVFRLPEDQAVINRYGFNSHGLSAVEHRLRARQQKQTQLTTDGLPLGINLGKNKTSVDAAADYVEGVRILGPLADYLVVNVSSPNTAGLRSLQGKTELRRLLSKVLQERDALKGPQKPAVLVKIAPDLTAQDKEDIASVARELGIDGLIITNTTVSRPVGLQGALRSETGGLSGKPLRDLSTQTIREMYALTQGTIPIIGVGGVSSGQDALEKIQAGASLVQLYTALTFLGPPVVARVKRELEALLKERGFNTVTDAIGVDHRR

Compound	tumor response observed [1]	Dyspepsia: No. of Patients Experiencing the AE, Max Grade 1 [2]	toxicity in mouse model of AML [3]	DHO plasma level threshold achieved ([4]; Example 9, first patient with AML)	time remained above DHO threshold [4, 8] [h]	time to achieve DHO plasma level threshold [4, 8]	DHO plasma level threshold achieved ([4]; Example 10, second patient with AML)	time remained above DHO threshold [4, 9] [h]	time to achieve DHO plasma level threshold [4, 9] [h]	DHO plasma level threshold achieved ([4]; Example 11, patient with AML) [ng/mL]	time remained above DHO threshold [4, 10] [h]	time to achieve DHO plasma level threshold [4, 10]	concentration of DHO remaining in the plasma [5]	clinical response ([6]; Example 9, first patient with AML, bone marrow blast count, extramedullary hematopoiesis, differentiation of peripheral blasts)	clinical response ([6]; Example 10, second patient with AML, peripheral blasts, absolute neutrophil count, differentiation of peripheral blasts)	clinical response ([6]; Example 11, patient with AML, trend towards differentiation of peripheral blasts)	effect of combination on individual drug pharmacokinetic parameters ([7]; 650 mg/m^2 brequinar with 75 mg/m^2 cisplatin (Burris))	brequinar dose that can be administered with full dose cisplatin ([7]; brequinar days 1, 8 and 15 with 75 mg/m^2 cisplatin day 1, 28-day cycle (Burris)) [mg/m^2]
Cc1c(-c2ccc(-c3ccccc3F)cc2)nc2ccc(F)cc2c1C(=O)O [Brequinar sodium]	One mixed response																	
Cc1c(-c2ccc(-c3ccccc3F)cc2)nc2ccc(F)cc2c1C(=O)O [brequinar, 6-fluoro-2-(2′-fluoro-1,1′ biphenyl-4-yl)-3-methyl-4-quinoline carboxylic acid]		6	weight loss, anemia, and thrombocytopenia	≥ 1,600 ng/mL	84	less than 24 hours	≥ 2,900 ng/mL	84	< 24	≥ 133	84	less than 2 hours	about 100 ng/mL	positive response	positive response	positive response	without significant modifications of individual drug pharmacokinetic parameters	650
